From ChEMBL document CHEMBL1667814 (Bioorg Med Chem, 2011)

Legend:
Cholinesterase = Cholinesterase (Equus caballus, UniProt P81908)
Description: Inhibition of equine serum BChE by Ellman's method

Acetylcholinesterase = Acetylcholinesterase (Electrophorus electricus, UniProt O42275)
Chain of Acetylcholinesterase (O42275 whole entry): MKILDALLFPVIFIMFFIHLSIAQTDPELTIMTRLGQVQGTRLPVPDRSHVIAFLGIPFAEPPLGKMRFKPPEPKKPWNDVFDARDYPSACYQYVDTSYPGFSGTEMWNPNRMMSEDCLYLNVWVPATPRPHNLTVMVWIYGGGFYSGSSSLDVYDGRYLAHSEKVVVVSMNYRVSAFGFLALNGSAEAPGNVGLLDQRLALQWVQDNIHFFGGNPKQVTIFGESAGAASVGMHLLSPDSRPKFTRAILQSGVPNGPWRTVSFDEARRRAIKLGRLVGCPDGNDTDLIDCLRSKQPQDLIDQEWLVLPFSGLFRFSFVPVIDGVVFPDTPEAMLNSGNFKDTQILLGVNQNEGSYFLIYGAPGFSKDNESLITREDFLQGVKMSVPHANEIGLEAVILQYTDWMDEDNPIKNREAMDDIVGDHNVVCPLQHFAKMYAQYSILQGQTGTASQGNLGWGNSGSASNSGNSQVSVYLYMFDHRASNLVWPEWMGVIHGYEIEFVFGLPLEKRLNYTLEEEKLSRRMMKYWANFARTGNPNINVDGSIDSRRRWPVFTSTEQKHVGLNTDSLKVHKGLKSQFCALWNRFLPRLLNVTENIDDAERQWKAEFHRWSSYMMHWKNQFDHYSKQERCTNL
Description: Inhibition of electric eel AChE by Ellman's method

Chain of Cholinesterase (P81908 whole entry): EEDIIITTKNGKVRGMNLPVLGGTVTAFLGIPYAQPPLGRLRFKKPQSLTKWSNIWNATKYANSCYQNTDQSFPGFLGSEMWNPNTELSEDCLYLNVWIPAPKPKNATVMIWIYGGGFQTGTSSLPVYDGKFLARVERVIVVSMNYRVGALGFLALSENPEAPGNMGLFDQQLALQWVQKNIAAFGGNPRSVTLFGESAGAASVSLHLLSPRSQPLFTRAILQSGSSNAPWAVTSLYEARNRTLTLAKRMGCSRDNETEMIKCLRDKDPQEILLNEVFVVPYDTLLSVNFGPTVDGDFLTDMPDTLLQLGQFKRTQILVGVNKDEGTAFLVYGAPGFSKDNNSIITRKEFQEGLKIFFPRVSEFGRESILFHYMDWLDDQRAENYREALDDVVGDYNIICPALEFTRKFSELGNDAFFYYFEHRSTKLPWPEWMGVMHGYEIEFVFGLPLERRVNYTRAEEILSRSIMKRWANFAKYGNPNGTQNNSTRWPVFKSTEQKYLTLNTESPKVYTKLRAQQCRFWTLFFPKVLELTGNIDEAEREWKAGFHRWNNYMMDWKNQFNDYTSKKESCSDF

Work on `c1ccc(C/N=c2/c3ccccc3nc3n2CCCCCC3)cc1` yielded an IC50 (Cholinesterase) of 1100 nM and an IC50 (Acetylcholinesterase; read-out: IC50) of over 500000 nM.

For `c1ccc(C/N=c2/c3ccccc3nc3n2CCC3)cc1`, the IC50 (Cholinesterase) was 1900 nM and the IC50 (Acetylcholinesterase; read-out: IC50) was 13900 nM.

`c1ccc2/c(=N\CCCCCCC/N=c3\c4ccccc4nc4n3CCC4)n3c(nc2c1)CCC3` was tested, and the IC50 (Cholinesterase) was 88 nM and the IC50 (Acetylcholinesterase; read-out: IC50) was 79 nM.

`CN(CCCN=c1c2ccccc2nc2n1CCC2)CCC/N=c1\c2ccccc2nc2n1CCC2` gave an IC50 (Cholinesterase) of 547 nM and an IC50 (Acetylcholinesterase; read-out: IC50) of 541 nM.

For `CC(=O)N(CCCN=c1c2ccccc2nc2n1CCC2)CCC/N=c1\c2ccccc2nc2n1CCC2`, the IC50 (Cholinesterase) was 267 nM and the IC50 (Acetylcholinesterase; read-out: IC50) was 331 nM.

With `c1ccc2c(=NCCCCCCC/N=c3\c4ccccc4nc4n3CCCCCC4)n3c(nc2c1)CCCCCC3` the IC50 (Cholinesterase) was 27 nM and the IC50 (Acetylcholinesterase; read-out: IC50) was 65 nM.

`CN(CCCN=c1c2ccccc2nc2n1CCCCCC2)CCC/N=c1\c2ccccc2nc2n1CCCCCC2` showed an IC50 (Cholinesterase) of 197 nM and an IC50 (Acetylcholinesterase; read-out: IC50) of 203 nM.

Molecule `CC(=O)N(CCCN=c1c2ccccc2nc2n1CCCCCC2)CCC/N=c1\c2ccccc2nc2n1CCCCCC2` has an IC50 (Cholinesterase) of 72.7 nM and an IC50 (Acetylcholinesterase; read-out: IC50) of 49 nM.

`c1ccc2c(=NCCCCCCCCN=c3c4ccccc4nc4n3CCC4)n3c(nc2c1)CCC3` gave an IC50 (Cholinesterase) of 4.8 nM and an IC50 (Acetylcholinesterase; read-out: IC50) of 58 nM.

Molecule `CN(CCCCN=c1c2ccccc2nc2n1CCC2)CCCN=c1c2ccccc2nc2n1CCC2` has an IC50 (Cholinesterase) of 81.3 nM and an IC50 (Acetylcholinesterase; read-out: IC50) of 561 nM.

Work on `CC(=O)N(CCCCN=c1c2ccccc2nc2n1CCC2)CCCN=c1c2ccccc2nc2n1CCC2` yielded an IC50 (Cholinesterase) of 4 nM and an IC50 (Acetylcholinesterase; read-out: IC50) of 20.9 nM.

`CCC(=O)N(CCCCN=c1c2ccccc2nc2n1CCC2)CCCN=c1c2ccccc2nc2n1CCC2` gave an IC50 (Cholinesterase) of 5.9 nM and an IC50 (Acetylcholinesterase; read-out: IC50) of 18 nM.

`C=C(C)C(=O)N(CCCCN=c1c2ccccc2nc2n1CCC2)CCCN=c1c2ccccc2nc2n1CCC2` gave an IC50 (Cholinesterase) of 10.6 nM and an IC50 (Acetylcholinesterase; read-out: IC50) of 6.7 nM.

Work on `c1ccc2c(=NCCCCCCCCN=c3c4ccccc4nc4n3CCCCCC4)n3c(nc2c1)CCCCCC3` yielded an IC50 (Cholinesterase) of 76 nM and an IC50 (Acetylcholinesterase; read-out: IC50) of 14400 nM.

Molecule `CN(CCCCN=c1c2ccccc2nc2n1CCCCCC2)CCCN=c1c2ccccc2nc2n1CCCCCC2` has an IC50 (Cholinesterase) of 51.4 nM and an IC50 (Acetylcholinesterase; read-out: IC50) of 606 nM.

With `CC(=O)N(CCCCN=c1c2ccccc2nc2n1CCCCCC2)CCCN=c1c2ccccc2nc2n1CCCCCC2` the IC50 (Cholinesterase) was 43.1 nM and the IC50 (Acetylcholinesterase; read-out: IC50) was 177 nM.

`CCC(=O)N(CCCCN=c1c2ccccc2nc2n1CCCCCC2)CCCN=c1c2ccccc2nc2n1CCCCCC2` was tested, and the IC50 (Cholinesterase) was 46.3 nM and the IC50 (Acetylcholinesterase; read-out: IC50) was 289 nM.

`C=C(C)C(=O)N(CCCCN=c1c2ccccc2nc2n1CCCCCC2)CCCN=c1c2ccccc2nc2n1CCCCCC2` was tested, and the IC50 (Cholinesterase) was 37.7 nM and the IC50 (Acetylcholinesterase; read-out: IC50) was 153 nM.

`CC(=O)NCC(=O)N(CCCCN=c1c2ccccc2nc2n1CCCCCC2)CCCN=c1c2ccccc2nc2n1CCCCCC2` gave an IC50 (Cholinesterase) of 122 nM and an IC50 (Acetylcholinesterase; read-out: IC50) of 75.6 nM.

`CC(C)(C)C(=O)N(CCCCN=c1c2ccccc2nc2n1CCCCCC2)CCCN=c1c2ccccc2nc2n1CCCCCC2` showed an IC50 (Cholinesterase) of 25.5 nM, an IC50 (Acetylcholinesterase; read-out: IC50) of 536 nM and an IC50 (Acetylcholinesterase; read-out: pIC50 (converted)) of 53.6 nM.

`CCCCC(=O)N(CCCCN=c1c2ccccc2nc2n1CCCCCC2)CCCN=c1c2ccccc2nc2n1CCCCCC2` gave an IC50 (Cholinesterase) of 12.9 nM and an IC50 (Acetylcholinesterase; read-out: IC50) of 1060 nM.

Work on `CC(C)CC(=O)N(CCCCN=c1c2ccccc2nc2n1CCCCCC2)CCCN=c1c2ccccc2nc2n1CCCCCC2` yielded an IC50 (Cholinesterase) of 8.1 nM and an IC50 (Acetylcholinesterase; read-out: IC50) of 621 nM.

Work on `CC(C)CCC(=O)N(CCCCN=c1c2ccccc2nc2n1CCCCCC2)CCCN=c1c2ccccc2nc2n1CCCCCC2` yielded an IC50 (Cholinesterase) of 3 nM and an IC50 (Acetylcholinesterase; read-out: IC50) of 792 nM.
